Here are results for five molecules from ChEMBL document CHEMBL1152038, “Quaternised renzapride as a potent and selective 5-HT4 receptor agonist” (Bioorg Med Chem Lett, 1993).

The target in assay [1] is T1, Serotonin 3 (5-HT3) receptor (Rattus norvegicus, UniProt P35563+Q9JJ16).
T1 sequence (P35563 whole entry): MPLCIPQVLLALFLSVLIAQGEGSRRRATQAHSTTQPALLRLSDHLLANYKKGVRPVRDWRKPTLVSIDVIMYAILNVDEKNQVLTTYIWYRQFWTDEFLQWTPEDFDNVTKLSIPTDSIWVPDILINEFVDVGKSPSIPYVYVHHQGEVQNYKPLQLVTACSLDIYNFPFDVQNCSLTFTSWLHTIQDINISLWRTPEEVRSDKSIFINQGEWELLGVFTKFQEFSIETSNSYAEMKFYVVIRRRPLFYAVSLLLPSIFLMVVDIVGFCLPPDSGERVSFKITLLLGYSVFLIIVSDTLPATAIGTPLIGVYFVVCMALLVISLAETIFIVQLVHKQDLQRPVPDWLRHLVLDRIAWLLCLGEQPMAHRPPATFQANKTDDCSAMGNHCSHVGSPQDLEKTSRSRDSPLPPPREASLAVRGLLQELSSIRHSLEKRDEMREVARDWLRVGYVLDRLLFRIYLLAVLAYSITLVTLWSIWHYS
T1 sequence (Q9JJ16 whole entry): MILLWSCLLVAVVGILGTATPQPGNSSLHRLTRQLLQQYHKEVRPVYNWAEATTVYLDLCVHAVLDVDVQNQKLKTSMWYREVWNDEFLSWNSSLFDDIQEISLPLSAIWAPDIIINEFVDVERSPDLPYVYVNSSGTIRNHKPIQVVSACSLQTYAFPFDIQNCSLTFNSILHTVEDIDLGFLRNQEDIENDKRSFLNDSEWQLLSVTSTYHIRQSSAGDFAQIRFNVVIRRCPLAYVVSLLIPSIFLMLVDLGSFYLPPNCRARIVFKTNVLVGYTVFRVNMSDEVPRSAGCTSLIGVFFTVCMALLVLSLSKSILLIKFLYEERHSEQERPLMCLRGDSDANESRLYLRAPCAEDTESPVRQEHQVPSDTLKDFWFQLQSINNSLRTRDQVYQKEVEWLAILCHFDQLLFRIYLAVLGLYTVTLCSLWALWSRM
Kind of assay: Tested for its binding affinity by measuring its ability to displace [3H]granisetron from 5-hydroxytryptamine 3 receptor in rat cortex.

Assay [2] addresses 5-hydroxytryptamine receptor 4 (Rattus norvegicus, UniProt Q62758). Kind of assay: Tested for its agonist potency against the 5-hydroxytryptamine 4 receptor located in the rat esophageal tunica muscularis mucosae. The format is functional, tissue-based, Muscularis mucosa.
The target of assay [3] is 5-hydroxytryptamine receptor 4 (Rattus norvegicus) (UniProt Q62758). Description: Tested for its efficacy against the 5-hydroxytryptamine 4 receptor located in the rat esophageal tunica muscularis mucosae. The settings on record: Muscularis mucosa. The format is tissue-based.
Chain of 5-hydroxytryptamine receptor 4 (Rattus norvegicus) (Q62758 whole entry): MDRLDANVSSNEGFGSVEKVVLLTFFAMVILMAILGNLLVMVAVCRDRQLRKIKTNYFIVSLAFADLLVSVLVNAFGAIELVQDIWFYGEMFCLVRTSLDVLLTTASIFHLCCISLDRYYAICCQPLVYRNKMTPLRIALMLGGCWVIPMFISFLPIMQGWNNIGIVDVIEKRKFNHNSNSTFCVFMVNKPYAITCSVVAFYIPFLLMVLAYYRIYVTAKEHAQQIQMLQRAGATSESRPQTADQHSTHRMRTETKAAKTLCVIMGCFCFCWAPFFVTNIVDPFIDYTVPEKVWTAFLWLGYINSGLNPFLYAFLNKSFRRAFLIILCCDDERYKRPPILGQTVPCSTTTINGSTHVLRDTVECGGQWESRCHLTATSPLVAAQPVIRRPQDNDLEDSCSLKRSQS

Chain of 5-hydroxytryptamine receptor 4 (Q62758 whole entry): as above

On to `COc1cc(N)c(Cl)cc1C(=O)NC1CCN2CCCC1C2` (centres undefined) [RENZAPRIDE], for which, in assay [1], the inhibitory constant (Ki) (commonly a dissociation constant, usually derived from enzyme kinetics or from competition with a known ligand) is 5.01 nM. The 50% effective concentration (EC50) (commonly the concentration that produces a half-maximal response) in assay [2] stood at 63.1 nM. In assay [3], this molecule came in with an Intrinsic activity of 0.8.

The molecule `CCn1c(=O)n(C(=O)NC2CC3CCC(C2)N3C)c2ccccc21` (centres undefined) showed an inhibitory constant (Ki) in assay [1] of 3.98 nM. In assay [2], the midpoint of the response, the EC50, lay at 10 nM. Moreover, the Intrinsic activity in assay [3] was 0.7.

For `CC(C)n1c(=O)n(C(=O)NC2CC3CCC(C2)N3C)c2ccccc21` (centres undefined), in assay [1], the affinity, expressed as Ki, was 1.58 nM. Moreover, the midpoint of the response in assay [2], the EC50, lay at 12.6 nM. For the same molecule, the Intrinsic activity in assay [3] stood at 0.9.

Regarding `CCCC[N+]12CCCC(C1)C(NC(=O)c1cc(Cl)c(N)cc1OC)CC2` (centres undefined), in assay [1], affinity was put at a Ki of 126 nM. In assay [2], this molecule yielded an EC50 of 9.55 nM. In assay [3], this molecule returned an Intrinsic activity of 0.79.

In the case of `CCN(CC)CCNC(=O)c1cc(Cl)c(N)cc1OC` [METOCLOPRAMIDE], the inhibition constant Ki in assay [1] was 158 nM. The molecule also returned an Intrinsic activity in assay [3] of 0.8.
